What was measured:
Settings in all cases: incubation time: 72 h
[1] = tested on: MFM-223; experiment: drug sensitivity score (DSS), CellTiter-Glo (DSS (AUC-based score)); higher = stronger drug effect (viability inhibition or cytotoxicity); extreme values may be limits of the assay
Method in brief: (§1)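 Plates with 384 wells held compound at 5 concentrations in 10-fold steps over a 10,000-fold range specific to each compound. Breast cancer cell lines were added in 20 µl suspension and incubated 72 h, then read for CellTox Green and CellTiter-Glo signals, with each plate normalised to 0.1 % DMSO and a positive kill control. The drug sensitivity score is based on the area under the fitted dose-response curve.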

[2] = tested on: HCC1143; experiment: as above
Method in brief: as §1

[3] = tested on: MDA-MB-468; experiment: as above
Method in brief: as §1

[4] = tested on: BT-474; experiment: as above
Method in brief: as §1

[5] = tested on: HDQ-P1; experiment: as above
Method in brief: as §1

[6] = tested on: MCF-10A; experiment: as above
Method in brief: as §1

[7] = tested on: HCC1599; experiment: as above
Method in brief: as §1

[8] = tested on: BT-549; experiment: as above
Method in brief: as §1

[9] = tested on: CAL-148; experiment: as above
Method in brief: as §1

[10] = tested on: CAL-51; experiment: as above
Method in brief: as §1

[11] = tested on: Hs578T; experiment: as above
Method in brief: as §1

[12] = tested on: MDA-MB-436; experiment: as above
Method in brief: as §1

[13] = tested on: CAL-120; experiment: as above
Method in brief: as §1

[14] = tested on: MDA-MB-231; experiment: as above
Method in brief: as §1

[15] = tested on: DU-4475; experiment: as above
Method in brief: as §1

[16] = tested on: MDA-MB-453; experiment: as above
Method in brief: as §1

[17] = tested on: SK-BR-3; experiment: as above
Method in brief: as §1

[18] = tested on: HCC1937; experiment: as above
Method in brief: as §1

[19] = tested on: MFM-223; experiment: drug sensitivity score (DSS), CellTox Green (DSS (AUC-based score)); higher = stronger drug effect (viability inhibition or cytotoxicity); extreme values may be limits of the assay
Method in brief: as §1

[20] = tested on: HCC1143; experiment: as above
Method in brief: as §1

[21] = tested on: HCC1599; experiment: as above
Method in brief: as §1

[22] = tested on: CAL-85-1; experiment: as above
Method in brief: as §1

[23] = tested on: Hs578T; experiment: as above
Method in brief: as §1

[24] = tested on: MDA-MB-231; experiment: as above
Method in brief: as §1

[25] = tested on: DU-4475; experiment: as above
Method in brief: as §1

[26] = tested on: MDA-MB-453; experiment: as above
Method in brief: as §1

[27] = tested on: HCC1937; experiment: as above
Method in brief: as §1

SMILES	drug sensitivity score [1]	drug sensitivity score [2]	drug sensitivity score [3]	drug sensitivity score [4]	drug sensitivity score [5]	drug sensitivity score [6]	drug sensitivity score [7]	drug sensitivity score [8]	drug sensitivity score [9]	drug sensitivity score [10]	drug sensitivity score [11]	drug sensitivity score [12]	drug sensitivity score [13]	drug sensitivity score [14]	drug sensitivity score [15]	drug sensitivity score [16]	drug sensitivity score [17]	drug sensitivity score [18]	drug sensitivity score [19]	drug sensitivity score [20]	drug sensitivity score [21]	drug sensitivity score [22]	drug sensitivity score [23]	drug sensitivity score [24]	drug sensitivity score [25]	drug sensitivity score [26]	drug sensitivity score [27]
CN1CCN(c2ccc3nc(-c4c(N)c5c(F)cccc5[nH]c4=O)[nH]c3c2)CC1 [Dovitinib]	0	0	0	0	0	0	0	0	0	0	0	0	0.000114	0	0	0	0	0	0	0	0	0	4.14	0.731	0	0	0
O=c1[nH]cc(F)c(=O)[nH]1 [Fluorouracil]	0	0	0	0	0	0	0	0	0	0	0	3.61	0	0	0	0	1.79	0	0	0	0	0	0	0	0	0	0
C[C@@H]1C=C2C(=O)O[C@@H]3CC[C@H](C1)[C@]23O [Galiellalactone]	0	0	6.03	0	0	0	0	2.89	0	4.43	0	0	0	0	0	0	0	0	0	0	0	1.02	0	0	0	0	0
COC1=C2C[C@@H](C)C[C@H](OC)[C@H](O)[C@@H](C)/C=C(\C)[C@H](OC(N)=O)[C@@H](OC)/C=C\C=C(/C)C(=O)NC(=CC1=O)C2=O [Geldanamycin]	11.3	2.36	4.27	4.34	4	3.98	1.53	5.68	1.87	5.12	3.07	8.77	2.21	5.32	6.88	3.9	5.98	5.93	2.69	0	0	6.66	0	4.3	0.88	0	6.9
CS(=O)(=O)CCNCc1ccc(-c2ccc3ncnc(Nc4ccc(OCc5cccc(F)c5)c(Cl)c4)c3c2)o1 [Lapatinib]	0	0	0	0	2.38	4.31	0	0	0	0	0	0	0	0	0	1.41	10.8	0	0	0	0	0	0	1.62	0	1.15	2.25
CCOc1cc2ncc(C#N)c(Nc3ccc(OCc4ccccn4)c(Cl)c3)c2cc1NC(=O)/C=C/CN(C)C [Neratinib]	0.624	0	4.31	0	6.58	11	0	0	2.61	1.09	0	0	1.19	0	0	8.47	24.8	0	0	0	0	3.47	0	4.21	0	0	0
COc1ccc(C2=N[C@@H](c3ccc(Cl)cc3)[C@@H](c3ccc(Cl)cc3)N2C(=O)N2CCNC(=O)C2)c(OC(C)C)c1 [Nutlin-3]	0	0	0	0	0	0	0	0	0.553	10.8	0	0	0	0	0.984	0.52	0	0	0	0	0	0	0	0	0	0	2.28
COC1=CC(c2cc3ccccc3[nH]2)=N/C1=C\c1[nH]c(C)cc1C [Obatoclax]	0	0	3.12	7.09	0	0	0	5.4	0	4.52	0	1.64	0	7.72	0.576	2.69	1.08	7.4	0	0	0	0	0	12.7	0	0	0
COC(=O)C[C@](O)(CCCC(C)(C)O)C(=O)O[C@@H]1C(OC)=C[C@]23CCCN2CCc2cc4c(cc2[C@H]13)OCO4 [Omacetaxine]	22.1	22.4	27.4	16.7	23.1	22.1	26.7	26.7	19.9	27.1	26	27	19	21.2	30.6	16.8	23.4	21.2	18.3	0	0	29	17.1	7.01	0	0	0
CC(=O)O[C@H]1C(=O)[C@@]2(C)[C@H]([C@H](OC(=O)c3ccccc3)[C@]3(O)C[C@H](OC(=O)[C@H](O)[C@@H](NC(=O)c4ccccc4)c4ccccc4)C(C)=C1C3(C)C)[C@]1(OC(C)=O)CO[C@@H]1C[C@@H]2O [Paclitaxel]	16.5	20.9	23.5	17.2	11.5	19.8	14.2	24.3	18.3	18.9	23.7	21.1	13.2	17.3	10.4	9.73	33.6	10.5	13.7	0	0	23.2	20.3	25.5	0	0	0
CC(C)(C)c1cc(NC(=O)Nc2ccc(-c3cn4c(n3)sc3cc(OCCN5CCOCC5)ccc34)cc2)no1 [Quizartinib]	0	0	0	0	0	0	0	0	0	0	0	0	0	0	0	0	0	0	0	0	0	0	3.83	0	0	0	0
O=C(c1ccc(OCCN2CCCCC2)cc1)c1c(-c2ccc(O)cc2)sc2cc(O)ccc12 [Raloxifene]	1.56	0	2.72	0.666	0	0	1.37	0	0	0	0	0	0	0	0	0	0	0	0	0	0.798	0	2.23	0	0	0	0
